Peptide text beside a SMILES is read from it. * marks the point of attachment. X1 = C=CC(=O)NCCCCC(NC(=O)OCc1ccccc1)C(=O)N1CCN(C(=O)C(CCC(=O)*)NC(=O)c2cccc3ccccc23)CC1
Legend:
TG1 = molecular target: T1, TG1 (Homo sapiens, UniProt P22735); test: TGase isozyme selectivity, TG1 with AL5 substrate; format: biochemical; conditions: [I]/α identical to that of the TG2 assay
T1 construct: purchased Zedira GmbH (Darmstadt, Germany)
T1 sequence (P22735 1-817): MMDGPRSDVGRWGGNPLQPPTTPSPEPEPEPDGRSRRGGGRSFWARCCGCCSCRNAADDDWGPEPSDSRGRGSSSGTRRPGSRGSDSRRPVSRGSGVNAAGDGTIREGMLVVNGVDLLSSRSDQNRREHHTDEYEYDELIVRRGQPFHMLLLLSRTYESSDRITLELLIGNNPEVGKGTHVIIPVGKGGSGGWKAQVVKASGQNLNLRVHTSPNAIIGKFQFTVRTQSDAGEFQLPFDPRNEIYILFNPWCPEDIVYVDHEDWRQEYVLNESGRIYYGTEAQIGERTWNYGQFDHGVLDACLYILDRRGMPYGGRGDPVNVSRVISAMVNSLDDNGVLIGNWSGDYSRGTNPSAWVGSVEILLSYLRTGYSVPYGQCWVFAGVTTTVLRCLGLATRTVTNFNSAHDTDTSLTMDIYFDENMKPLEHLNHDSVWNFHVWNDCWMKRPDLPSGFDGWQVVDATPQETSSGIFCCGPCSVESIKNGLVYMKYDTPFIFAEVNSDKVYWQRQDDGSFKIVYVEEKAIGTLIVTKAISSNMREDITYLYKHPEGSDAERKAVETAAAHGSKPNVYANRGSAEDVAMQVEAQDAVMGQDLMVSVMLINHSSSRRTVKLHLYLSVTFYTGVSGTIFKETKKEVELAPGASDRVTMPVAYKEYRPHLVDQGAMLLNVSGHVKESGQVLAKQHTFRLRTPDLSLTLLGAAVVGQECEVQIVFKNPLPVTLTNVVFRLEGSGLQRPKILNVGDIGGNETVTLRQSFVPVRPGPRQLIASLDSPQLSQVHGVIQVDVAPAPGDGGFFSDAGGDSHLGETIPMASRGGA
Description: (§1) In the development of probes for TGases, isozyme selectivity is always a significant challenge. Since the catalytic machinery of the active sites of all TGases features a conserved Gly-Gln-Cys-Trp-Val sequence, selectivity for one isozyme over the others requires exploitation of slight differences in the protein substrate binding sites. In order to assess the isozyme selectivity of our cell-impermeable inhibitors, TG2 and four other therapeutically relevant TGases (Factor XIII, TG1, TG3, and TG6) were exposed to a concentration of inhibitor representing the same apparent competition with respect to the assay substrate (AL5 [38] or A101 [42, 43]). In other words, both the substrate and inhibitor concentrations were varied so that the [I]/α values were identical. […] This provides confidence that in further applications, these cell-impermeable inhibitors will selectively target TG2 over other transglutaminases.
To monitor the activity of TG3a and TG6, a FRET-quenched substrate A101 (Zedira Gmbh) was used. […] The isopeptidase activity of the respective TGase was then monitored at Ex/Em = 313/418 nm with a BioTek Synergy 4 plate reader at 25 °C. […]

TG6 = molecular target: T2, TG6 (Homo sapiens, UniProt O95932); test: TGase isozyme selectivity, TG6 with AL5 substrate; format: biochemical; conditions: [I]/α identical to that of the TG2 assay
T2 construct: purchased Zedira GmbH (Darmstadt, Germany)
T2 sequence (O95932 1-706): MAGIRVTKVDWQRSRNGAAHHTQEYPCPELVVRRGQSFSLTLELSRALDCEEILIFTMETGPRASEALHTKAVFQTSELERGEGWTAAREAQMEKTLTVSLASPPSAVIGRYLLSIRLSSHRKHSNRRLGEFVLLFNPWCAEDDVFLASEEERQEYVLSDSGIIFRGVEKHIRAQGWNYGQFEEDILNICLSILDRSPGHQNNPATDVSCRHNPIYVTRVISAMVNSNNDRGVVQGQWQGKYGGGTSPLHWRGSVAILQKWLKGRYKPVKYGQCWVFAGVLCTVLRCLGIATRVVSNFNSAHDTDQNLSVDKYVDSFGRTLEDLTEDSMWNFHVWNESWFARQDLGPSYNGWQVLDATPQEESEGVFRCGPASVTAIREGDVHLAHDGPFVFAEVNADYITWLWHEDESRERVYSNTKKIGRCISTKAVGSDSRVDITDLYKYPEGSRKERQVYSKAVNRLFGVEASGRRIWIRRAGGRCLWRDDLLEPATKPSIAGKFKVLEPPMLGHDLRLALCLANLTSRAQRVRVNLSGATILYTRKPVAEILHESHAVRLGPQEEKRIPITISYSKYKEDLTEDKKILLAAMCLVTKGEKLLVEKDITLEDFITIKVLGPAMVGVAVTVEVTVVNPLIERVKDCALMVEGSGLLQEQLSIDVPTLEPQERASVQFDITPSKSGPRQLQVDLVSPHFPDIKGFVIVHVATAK
Description: as §1
[…] In brief, 125 µL assay buffer #1 (containing TRIS, CaCl2, and NaCl pH 7.5), 18 µL assay buffer #2 (containing TCEP and acceptor substrate H-Gly-OMe pH 7.5), and a respective concentration of inhibitor aqueous working stock balanced with various volumes of water were combined in a 96-well black plate with clear bottom/top. […] The isopeptidase activity of the respective TGase was then monitored at Ex/Em = 313/418 nm with a BioTek Synergy 4 plate reader at 25 °C. […]

[1] = MDCK cell permeability assay; format: in vitro ADME; conditions: dog, without Pgp inhibitor
P-gp = test: MDCK cell permeability assay; format: in vitro ADME; conditions: dog, without Pgp inhibitor

Row | Compound | inhibition of TG1 (TG1) | inhibition of TG6 (TG6) | Papp A→B [1] | Papp B→A [1] | efflux ratio (P-gp)
1 | C=CC(=O)NCCCCC(NC(=O)OCc1ccccc1)C(=O)N1CCN(C(=O)C(CCC(=O)NCC(=O)NCC(=O)NCC(=O)NC(CC(=O)O)C(=O)NC(CC(=O)O)C(=O)NC(CC(=O)O)C(=O)O)NC(=O)c2cccc3ccccc23)CC1 (stereo not shown) [Compound 18] (X1-GGGDDD-OH; configuration not given here) | no detectable inhibition | no detectable inhibition | 0.47 ×10⁻⁶ cm/s | 0.56 ×10⁻⁶ cm/s | 1.18
2 | C=CC(=O)NCCCCC(NC(=O)OCc1ccccc1)C(=O)N1CCN(C(=O)C(CCC(=O)NCCCCCC(=O)NC(CC(=O)O)C(=O)NC(CC(=O)O)C(=O)NC(CC(=O)O)C(=O)O)NC(=O)c2cccc3ccccc23)CC1 (stereo not shown) [Compound 17] | no detectable inhibition | no detectable inhibition | 0.31 ×10⁻⁶ cm/s | 0.42 ×10⁻⁶ cm/s | 1.39

Source: article PMC10454375, “Cell-Impermeable Inhibitors Confirm That Intracellular Human Transglutaminase 2 Is Responsible for the Transglutaminase-Associated Cancer Phenotype” (International Journal of Molecular Sciences, 2023)
